Data taken from PubChem BioAssay AID1963828 (Molecular Pharmacology Branch, DTP, NCI, 2024).
pIC50: −log10 of the molar value.

System: 991263-137-R1-J2-PDC complex spheroid viability
Assay: Anticancer human tumor 991263-137-R1-J2-PDC patient-derived colon adenocarcinoma cell line growth inhibition [POLQ]
Settings: for pIC50: curve of first compound; for viability, T/C: stronger effect = lower value
Outline: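 Three-cell-type spheroids modelling solid tumor plus stroma served as the readout system; POL inhibitors were tested individually and in combination, concentration ranges set by clinical Cmax where known.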

[1] = second compound 0.0316 µM, first compound 0.0316 µM
[2] = second compound 0.0316 µM, first compound 0.1 µM
[3] = second compound 0.0316 µM, first compound 0.316 µM
[4] = second compound 0.0316 µM, first compound 1 µM
[5] = second compound 0.0316 µM, first compound 3.16 µM
[6] = second compound 0.0316 µM, first compound 10 µM
[7] = second compound 0.1 µM, first compound 0.0316 µM
[8] = second compound 0.1 µM, first compound 0.1 µM
[9] = second compound 0.1 µM, first compound 0.316 µM
[10] = second compound 0.1 µM, first compound 1 µM
[11] = second compound 0.1 µM, first compound 3.16 µM
[12] = second compound 0.1 µM, first compound 10 µM
[13] = second compound 0.316 µM, first compound 0.0316 µM
[14] = second compound 0.316 µM, first compound 0.1 µM
[15] = second compound 0.316 µM, first compound 0.316 µM
[16] = second compound 0.316 µM, first compound 1 µM
[17] = second compound 0.316 µM, first compound 3.16 µM
[18] = second compound 0.316 µM, first compound 10 µM
[19] = second compound 1 µM, first compound 0.0316 µM
[20] = second compound 1 µM, first compound 0.1 µM
[21] = second compound 1 µM, first compound 0.316 µM
[22] = second compound 1 µM, first compound 1 µM
[23] = second compound 1 µM, first compound 3.16 µM
[24] = second compound 1 µM, first compound 10 µM
[25] = second compound 3.16 µM, first compound 0.0316 µM
[26] = second compound 3.16 µM, first compound 0.1 µM
[27] = second compound 3.16 µM, first compound 0.316 µM
[28] = second compound 3.16 µM, first compound 1 µM
[29] = second compound 3.16 µM, first compound 3.16 µM
[30] = second compound 3.16 µM, first compound 10 µM
[31] = second compound 10 µM, first compound 0.0316 µM
[32] = second compound 10 µM, first compound 0.1 µM
[33] = second compound 10 µM, first compound 0.316 µM
[34] = second compound 10 µM, first compound 1 µM
[35] = second compound 10 µM, first compound 3.16 µM
[36] = second compound 10 µM, first compound 10 µM
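Further: spheroids exposed to compounds for 7 days before readout.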
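Wherever viability, T/C is given: 100% = DMSO vehicle control viability.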

SMILES: CC1COCCN1c1cc(C2(O)CC3CCC(C2)O3)c2cnn(-c3ccn[nH]3)c2n1 (stereo not drawn) + Cc1cccc(N(C)C(=O)C2C(O)CCN2c2nc(C)cc(C(F)(F)F)c2C#N)c1
- pIC50 (second compound 0.0316 µM): 5.91
- pIC50 (second compound 0.1 µM): 5.66
- pIC50 (second compound 0.316 µM): 5.79
- pIC50 (second compound 1 µM): 5.51
- pIC50 (second compound 3.16 µM): 5.59
- pIC50 (second compound 10 µM): 6.02
- viability, T/C [1]: 107%
- viability, T/C [2]: 84.8%
- viability, T/C [3]: 67.5%
- viability, T/C [4]: 55.8%
- viability, T/C [5]: 35.8%
- viability, T/C [6]: 30.1%
- viability, T/C [7]: 110%
- viability, T/C [8]: 103%
- viability, T/C [9]: 82.3%
- viability, T/C [10]: 61.1%
- viability, T/C [11]: 46.4%
- viability, T/C [12]: 29.2%
- viability, T/C [13]: 107%
- viability, T/C [14]: 110%
- viability, T/C [15]: 75.9%
- viability, T/C [16]: 59.2%
- viability, T/C [17]: 42.5%
- viability, T/C [18]: 28.3%
- viability, T/C [19]: 92%
- viability, T/C [20]: 98.2%
- viability, T/C [21]: 87.1%
- viability, T/C [22]: 67.4%
- viability, T/C [23]: 52.5%
- viability, T/C [24]: 28.6%
- viability, T/C [25]: 93.4%
- viability, T/C [26]: 85.5%
- viability, T/C [27]: 74.4%
- viability, T/C [28]: 61.6%
- viability, T/C [29]: 47.4%
- viability, T/C [30]: 34.6%
- viability, T/C [31]: 90.9%
- viability, T/C [32]: 98.8%
- viability, T/C [33]: 75.2%
- viability, T/C [34]: 48.2%
- viability, T/C [35]: 37.7%
- viability, T/C [36]: 25.9%

SMILES: CC(=O)O[C@H]1C(=O)[C@@]2(C)[C@H]([C@H](OC(=O)c3ccccc3)[C@]3(O)C[C@H](OC(=O)[C@H](O)[C@@H](NC(=O)c4ccccc4)c4ccccc4)C(C)=C1C3(C)C)[C@]1(OC(C)=O)CO[C@@H]1C[C@@H]2O + Nc1ccc(C#CCN(C(=O)Cc2ncc(C(F)(F)F)cc2C(F)(F)F)c2ccc(F)cc2)nn1
- pIC50 (second compound 0.0316 µM): < 5.52
- pIC50 (second compound 0.1 µM): < 5.52
- pIC50 (second compound 0.316 µM): 5.60
- pIC50 (second compound 1 µM): < 5.52
- pIC50 (second compound 3.16 µM): < 5.52
- pIC50 (second compound 10 µM): < 5.52
- viability, T/C (second compound 0.0316 µM, first compound 0.00949 µM): 98.6%
- viability, T/C (second compound 0.0316 µM, first compound 0.03 µM): 89.7%
- viability, T/C (second compound 0.0316 µM, first compound 0.0949 µM): 84.9%
- viability, T/C (second compound 0.0316 µM, first compound 0.3 µM): 77.8%
- viability, T/C (second compound 0.0316 µM, first compound 0.949 µM): 55.3%
- viability, T/C (second compound 0.0316 µM, first compound 3 µM): 56.6%
- viability, T/C (second compound 0.1 µM, first compound 0.00949 µM): 93.9%
- viability, T/C (second compound 0.1 µM, first compound 0.03 µM): 96.5%
- viability, T/C (second compound 0.1 µM, first compound 0.0949 µM): 87.9%
- viability, T/C (second compound 0.1 µM, first compound 0.3 µM): 85.8%
- viability, T/C (second compound 0.1 µM, first compound 0.949 µM): 55.1%
- viability, T/C (second compound 0.1 µM, first compound 3 µM): 50.9%
- viability, T/C (second compound 0.316 µM, first compound 0.00949 µM): 93.9%
- viability, T/C (second compound 0.316 µM, first compound 0.03 µM): 95.6%
- viability, T/C (second compound 0.316 µM, first compound 0.0949 µM): 85.3%
- viability, T/C (second compound 0.316 µM, first compound 0.3 µM): 80%
- viability, T/C (second compound 0.316 µM, first compound 0.949 µM): 58%
- viability, T/C (second compound 0.316 µM, first compound 3 µM): 48.9%
- viability, T/C (second compound 1 µM, first compound 0.00949 µM): 92.5%
- viability, T/C (second compound 1 µM, first compound 0.03 µM): 96.9%
- viability, T/C (second compound 1 µM, first compound 0.0949 µM): 98%
- viability, T/C (second compound 1 µM, first compound 0.3 µM): 66.4%
- viability, T/C (second compound 1 µM, first compound 0.949 µM): 57.7%
- viability, T/C (second compound 1 µM, first compound 3 µM): 51.7%
- viability, T/C (second compound 3.16 µM, first compound 0.00949 µM): 90.2%
- viability, T/C (second compound 3.16 µM, first compound 0.03 µM): 87.1%
- viability, T/C (second compound 3.16 µM, first compound 0.0949 µM): 68.7%
- viability, T/C (second compound 3.16 µM, first compound 0.3 µM): 60.6%
- viability, T/C (second compound 3.16 µM, first compound 0.949 µM): 51.4%
- viability, T/C (second compound 3.16 µM, first compound 3 µM): 50.6%
- viability, T/C (second compound 10 µM, first compound 0.00949 µM): 84.6%
- viability, T/C (second compound 10 µM, first compound 0.03 µM): 72%
- viability, T/C (second compound 10 µM, first compound 0.0949 µM): 53.8%
- viability, T/C (second compound 10 µM, first compound 0.3 µM): 58.1%
- viability, T/C (second compound 10 µM, first compound 0.949 µM): 49.5%
- viability, T/C (second compound 10 µM, first compound 3 µM): 50.2%

SMILES: COc1cc(C2c3cc4c(cc3C(OC3OC5COC(C)OC5C(O)C3O)C3COC(=O)C23)OCO4)cc(OC)c1O (stereo not drawn) + Nc1ccc(C#CCN(C(=O)Cc2ncc(C(F)(F)F)cc2C(F)(F)F)c2ccc(F)cc2)nn1
- pIC50 (second compound 0.0316 µM): < 5.00
- pIC50 (second compound 0.1 µM): < 5.00
- pIC50 (second compound 0.316 µM): < 5.00
- pIC50 (second compound 1 µM): < 5.00
- pIC50 (second compound 3.16 µM): < 5.00
- pIC50 (second compound 10 µM): < 5.00
- viability, T/C [1]: 106%
- viability, T/C [2]: 94.4%
- viability, T/C [3]: 108%
- viability, T/C [4]: 94.4%
- viability, T/C [5]: 93.2%
- viability, T/C [6]: 74.4%
- viability, T/C [7]: 115%
- viability, T/C [8]: 99.8%
- viability, T/C [9]: 102%
- viability, T/C [10]: 98.9%
- viability, T/C [11]: 91%
- viability, T/C [12]: 74.5%
- viability, T/C [13]: 97.9%
- viability, T/C [14]: 122%
- viability, T/C [15]: 107%
- viability, T/C [16]: 92.4%
- viability, T/C [17]: 93.5%
- viability, T/C [18]: 72.2%
- viability, T/C [19]: 100%
- viability, T/C [20]: 104%
- viability, T/C [21]: 97.8%
- viability, T/C [22]: 96.4%
- viability, T/C [23]: 99.9%
- viability, T/C [24]: 74.9%
- viability, T/C [25]: 96.3%
- viability, T/C [26]: 96.8%
- viability, T/C [27]: 103%
- viability, T/C [28]: 86.7%
- viability, T/C [29]: 72.1%
- viability, T/C [30]: 66.1%
- viability, T/C [31]: 89.6%
- viability, T/C [32]: 96.1%
- viability, T/C [33]: 88.7%
- viability, T/C [34]: 68.8%
- viability, T/C [35]: 70.9%
- viability, T/C [36]: 61.5%

SMILES: O=c1[nH]cc(F)c(=O)[nH]1 + Nc1ccc(C#CCN(C(=O)Cc2ncc(C(F)(F)F)cc2C(F)(F)F)c2ccc(F)cc2)nn1
- pIC50 (second compound 0.0316 µM): < 5.00
- pIC50 (second compound 0.1 µM): < 5.00
- pIC50 (second compound 0.316 µM): < 5.00
- pIC50 (second compound 1 µM): < 5.00
- pIC50 (second compound 3.16 µM): < 5.00
- pIC50 (second compound 10 µM): < 5.00
- viability, T/C [1]: 118%
- viability, T/C [2]: 112%
- viability, T/C [3]: 96.5%
- viability, T/C [4]: 97.1%
- viability, T/C [5]: 89.4%
- viability, T/C [6]: 89.3%
- viability, T/C [7]: 113%
- viability, T/C [8]: 115%
- viability, T/C [9]: 96%
- viability, T/C [10]: 101%
- viability, T/C [11]: 87%
- viability, T/C [12]: 80.9%
- viability, T/C [13]: 94.5%
- viability, T/C [14]: 104%
- viability, T/C [15]: 101%
- viability, T/C [16]: 93%
- viability, T/C [17]: 85.6%
- viability, T/C [18]: 86.1%
- viability, T/C [19]: 117%
- viability, T/C [20]: 114%
- viability, T/C [21]: 111%
- viability, T/C [22]: 90.2%
- viability, T/C [23]: 92.4%
- viability, T/C [24]: 86%
- viability, T/C [25]: 116%
- viability, T/C [26]: 106%
- viability, T/C [27]: 86.9%
- viability, T/C [28]: 89%
- viability, T/C [29]: 92.2%
- viability, T/C [30]: 78.4%
- viability, T/C [31]: 126%
- viability, T/C [32]: 101%
- viability, T/C [33]: 92.6%
- viability, T/C [34]: 85%
- viability, T/C [35]: 83.4%
- viability, T/C [36]: 84.9%
